Measurements from patent US9255103B2, “Substituted pyrazolo[1,5-a]pyrazines as mGluR5 receptor modulators” (Vanderbilt University, priority 2010, dated 2016).

System: male Sprague-Dawley rats
Assay: Reversal of amphetamine-induced hyperlocomotion in rats
Assay type: in vivo, rat
Conditions: oral gavage, doses as in FIG. 4; amphetamine sulfate 1 mg/kg sc; data only in FIG. 4
Description: Locomotor activity was assessed as mean distance traveled (cm) in standard 16×16 photocell testing chambers measuring 43.2 cm (Length)×43.2 cm (Width)×30.5 cm (Height) (Med Associates, St. Albans, Vt.). Animals were habituated to individual activity chambers for at least 30 min prior to drug administration. Following administration of drug or vehicle, activity was recorded for a 90 minute time period. Data was expressed as the mean (±SEM) distance traveled recorded in 5 min intervals over the test period. The data was analyzed using repeated measures analysis of variance (ANOVA) followed by post-hoc testing using Dunnett's test, when appropriate. A difference was considered significant when p≦0.05. […]
The animals were habituated in Smart Open Field locomotor activity test chambers (Hamilton-Kinder, San Diego, Calif.) with 16×16 photobeams to automatically record locomotor activity for 30 min and then dosed with vehicle or test compound. […] At 60 min, all rats were injected subcutaneously with 1 mg/kg amphetamine or vehicle and then monitored for an additional 60 min. Animals are monitored for a total of 120 minutes. Data are expressed as changes in ambulation defined as total number of beam breaks per 5 min periods.
The data for the dose-response studies were analyzed by a between-group analysis of variance. […]

O=C(c1ccc(F)cc1)N1CCn2nc(COc3ccccc3)cc2C1 [FPPPM, (4-fluorophenyl)(2-(phenoxymethyl)-6,7-dihydropyrazolo[1,5-a]pyrazin-5(4H)-yl)methanone]
reversal of amphetamine-induced hyperlocomotion: reversal of amphetamine-induced hyperlocomotion
